The values that follow come from US20220257767A1, “IONIC LIQUIDS FOR DRUG DELIVERY” (PRESIDENT AND FELLOWS OF HARVARD COLLEGE, priority 2019, published 2022).

Values after ≈ are worked out from the molar mass of the structure shown. “Also recorded” adds a separate entry of the source. Read-outs that look alike come from different tables or passages of the source.

The conditions of data set [1]: exemplary anions, Table 5; cited from earlier work.
Data set [2] is described as follows: Solubility of the model drugs in PBS and in CAGE variants. The following applies: PBS, aqueous buffer. It counts as physicochemical.
The test system of data set [3] is porcine skin. Briefly: Skin penetration studies using porcine skin in Franz diffusion cells, drug quantified by HPLC. The following applies: 24 h, listed as pure geranic acid.
Text: (§1) Skin Penetration Studies. The skin penetration studies were undertaken using porcine skin in Franz diffusion cells, as described in full previously (skin area=1.7 cm^2). […] Briefly, thawed, washed porcine skin was placed in a diffusion cell with the SC facing upwards. The acceptor component of the cell was filled with PBS and equipped with a magnetic stirrer bar. Only cells with a measured trans-epidermal current less than 12 μA were used in the study and the treatments were randomly assigned. 300 μL of drug solution in each IL (1 mg/mL) was placed on top of the skin, ensuring full coverage. The cell was placed on a stirrer plate at 37° C. for 24 hours, at which point the skin was removed and the surface was washed gently with PBS. Each skin layer was then separated. The stratum corneum was removed by tape stripping (up to ten layers), the epidermis was separated from the dermis with a scalpel, and a 4 mm punch was used thrice to remove a third of the dermis (by area).
(§2) HPLC Analysis. The analysis of the amount of drug present in each layer was determined by HPLC. […] For ruxolitinib, an Inertsil ODS C-18 column with 250×4.6 mm internal diameter and 5μm particle size was employed.
The conditions of data set [4]: model drugs; cited from earlier work.
Data set [5] relates to porcine skin.
Text: as §1, §2

The term pKa denotes the pH at which an ionisable group is half protonated. As a reminder, the LogP is the decadic logarithm of the partition coefficient of the neutral form, usually between octanol and water. A word on the solubility: it is the concentration that dissolves in the medium under given conditions. Low readings indicate little dissolved substance, high ones much dissolved substance. A word on the Log P: it is a log measure of how a compound divides between an organic and an aqueous phase.

`CN(C)CCO` [2-(dimethylamino)ethanol]: the pKa in data set [1] is given as 9.3.

In the case of `CCCCC(CC)COS(=O)(=O)[O-].[Na+]` (stereo not drawn) [2-ethylhexyl sulfate], in data set [1], the log partition coefficient (LogP) is 3.10.

As for `CCCCCCC(O)C(=O)O` (stereo not drawn) [2-hydroxyoctanoic acid], in data set [1], the LogP is recorded as 1.8 and the pKa is reported as 4.42.

As to `CC(C)C(=O)O` [2-methylpropanoic acid], in data set [1], the lipophilicity (LogP) is given as 0.73.

As to `CCC(O)CCCCCCC(=O)O` (stereo not drawn) [8-hydroxycapric acid], the LogP in data set [1] was 2.2.

With `COc1cc(/C=C/C(=O)O)ccc1O` [(E)-3-(4-hydroxy-3-methoxy-phenyl)prop-2-enoic acid], the pKa in data set [1] is 4.42.

As to `O=C(O)CCCC[C@@H]1CCSS1` [(R)-5-(1,2-dithiolan-3-yl)pentanoic acid], the pKa in data set [1] is reported as 5.10.

In data set [2], `C[C@H]1O[C@H](O[C@H]2[C@H](O)[C@@H](O)[C@@H](O[C@H]3[C@H](O)[C@@H](O)C(O)O[C@@H]3CO)O[C@@H]2CO)[C@H](O)[C@@H](O)[C@@H]1N[C@H]1C=C(CO)[C@@H](O)[C@H](O)[C@H]1O` (stereo partly drawn) [Acarbose, acarbose] gave a solubility not below 1000 µg/mL.

On to `CC(C)=CCCC(C)CC(=O)O` (stereo not drawn) [Citronellic Acid, 3,7-dimethyl-6-octenoic acid], for which, in data set [1], the LogP was 2.8 and the pKa is given as 5.19.

Regarding `CC(C)=CCC/C(C)=C/C(=O)O` [Geranic Acid], in data set [1], the LogP was 2.72 and the pKa is 5.26. For the same compound, in the data set with porcine skin [3], the “delivery/transport of acarbose into skin (in words)” value was “no significant transport; also recorded: did not yield a noticeable skin flux” and the “delivery/transport of ruxolitinib into skin (in words)” value is “no significant transport; also recorded: did not yield a noticeable skin flux”.

With `O=C(O)CCCC(=O)O` [Glutaric Acid], in data set [1], the LogP is −0.29 and the pKa is given as 4.34.

Turning to `O=C(O)C(O)c1ccccc1` (stereo not drawn) [Hydroxyl(phenyl)acetic acid], in data set [1], the LogP is 1.2 and the pKa was 3.41.

For `O=C(O)CCCCCCCC(=O)O` [Nonanedioic Acid], the pKa in data set [1] is listed as 4.55.

Take `CCCCCCCC(=O)O` [Octanoic Acid]: in data set [1], the LogP is on record as 3.01 and the pKa is on record as 4.895.

With `CCCCC/C=C/C(=O)O` [Octenoic Acid, trans-2-octenoic acid], in data set [1], the LogP is 2.9 and the pKa was 5.05.

With `O=C(O)c1ccccc1O` [Salicylic Acid], in data set [1], the LogP is 2.2.

On to `N#CC[C@H](C1CCCC1)n1cc(-c2ncnc3[nH]ccc23)cn1` [ruxolitinib], for which the “Log P” value in data set [4] is reported as 2.9. Besides, in data set [2], the concentration in solution (solubility) was 200 µg/mL (≈ 653 µM).

As for “Choline geranate [CAGE] [listing 1 of 2 here]”, in the data set on porcine skin [5], the “Acarbose: Rank” value is on record as 2, the “Average Rank” value came to 5 and the “Ruxolitinib: Rank” value was determined as 8.

For the compound “Choline geranate [CAGE] [listing 2 of 2 here]”, in the data set with porcine skin [5], the “Acarbose: Rank” value was 1, the “Average Rank” value came out at 1, the “Ruxolitinib: Rank” value is given as 3 and the “delivery/transport of acarbose into skin (in words)” value is given as “highest delivery efficacy”. The “delivery/transport of ruxolitinib into skin (in words)” value in the data set with porcine skin [5] is “highest delivery efficacy”.

Decenoic Acid: in data set [1], the lipophilicity (LogP) is 4.02 and the pKa was 5.03.

Hexenoic Acid: in data set [1], the LogP is 1.8 and the pKa is 5.13.
